# According to patent publication US7858635B2 (priority 2005, dated 2010):
# Experiments:
# M1 muscarinic receptor = target: T1, M1 muscarinic receptor (Homo sapiens, UniProt P11229); test: Functional mobilization of intracellular calcium (FLIPR, Fluo-3), M1-CHO cells; type: cell-based; conditions: compound nos. 1-454; for Emax: 100% efficacy is the maximum response obtained with the Carbachol control, read-out: M1 Efficacy; for M1 Activity: M1-CHO cells, calcium mobilization
# T1 construct: expressed in transfected cells; host or cells: CHO cells (M1-CHO, under zeocin and G418 selection)
# T1 sequence (P11229 1-460): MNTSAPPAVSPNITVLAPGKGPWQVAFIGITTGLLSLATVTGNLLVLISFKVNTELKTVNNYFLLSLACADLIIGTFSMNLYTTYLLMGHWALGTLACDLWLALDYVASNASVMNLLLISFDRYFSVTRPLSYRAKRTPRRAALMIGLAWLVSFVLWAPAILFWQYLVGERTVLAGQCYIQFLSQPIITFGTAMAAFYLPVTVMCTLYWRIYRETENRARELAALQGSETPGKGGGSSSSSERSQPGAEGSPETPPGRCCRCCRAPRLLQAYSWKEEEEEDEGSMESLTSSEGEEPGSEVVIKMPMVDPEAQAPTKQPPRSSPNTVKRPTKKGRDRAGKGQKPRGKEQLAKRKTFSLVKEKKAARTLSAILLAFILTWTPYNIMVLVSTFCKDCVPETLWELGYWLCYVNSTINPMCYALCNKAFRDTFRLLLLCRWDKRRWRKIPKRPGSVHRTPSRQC
# Procedure, shortened: (§1)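 Fluo-3 read-out, ex 488/em 540 nm, 60 sec on FLIPR 3. For agonist mode, compound added directly; for inhibition, 15 min compound pre-incubation before carbachol at EC80 (added as a 3× solution), or co-application. Buffer pH 7.4 with 1 mM probenecid; DMSO 0.5%.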
# M4 muscarinic receptor = target: T2, M4 muscarinic receptor (Homo sapiens, UniProt P08173); test: Functional mobilization of intracellular calcium (FLIPR, Fluo-3), M4-CHO cells; type: cell-based; conditions: compound nos. 1-454; for Emax: 100% efficacy is the maximum response obtained with the Carbachol control, read-out: M4 Efficacy; for M4 Activity: M4-CHO cells, calcium mobilization
# T2 construct: expressed in transfected cells; host or cells: CHO cells (M4-CHO, under puromycin, zeocin and blasticidin selection)
# T2 sequence (P08173 1-479): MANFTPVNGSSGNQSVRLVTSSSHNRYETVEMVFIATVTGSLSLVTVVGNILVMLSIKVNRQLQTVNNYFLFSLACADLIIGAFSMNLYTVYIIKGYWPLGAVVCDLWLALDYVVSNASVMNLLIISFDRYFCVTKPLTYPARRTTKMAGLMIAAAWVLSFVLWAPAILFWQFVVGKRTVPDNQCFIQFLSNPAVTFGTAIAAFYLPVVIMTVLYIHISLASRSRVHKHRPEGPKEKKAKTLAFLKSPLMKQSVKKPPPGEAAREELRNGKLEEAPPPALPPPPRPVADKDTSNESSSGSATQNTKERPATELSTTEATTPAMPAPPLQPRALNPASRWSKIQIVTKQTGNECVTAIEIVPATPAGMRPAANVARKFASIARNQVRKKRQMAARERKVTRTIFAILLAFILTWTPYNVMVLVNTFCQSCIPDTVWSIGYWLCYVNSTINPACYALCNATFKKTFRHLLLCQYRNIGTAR
# Procedure, shortened: as §1
Structure (SMILES),Emax (M1 muscarinic receptor) [%],M1 Activity (M1 muscarinic receptor),Emax (M4 muscarinic receptor) [%],M4 Activity (M4 muscarinic receptor)
Cc1ccc2c(c1)C1(CCN(C3CC4CCC3C4)CC1)CN2S(C)(=O)=O (centres unmarked) [compound 232],< 65,++ (activity was measured to be between 0.7 μM and 3.0 μM),> 70,+++ (activity was measured to be less than or equal to 0.1 μM)
Cc1cc(C(=O)N2CC3(CCN(C4CC5CCC(C4)N5C(=O)O[C@H]4CCOC4)CC3)c3cc(F)ccc32)nn1C (some centres unmarked) [compound 233],65 to 85,+++ (activity was measured to be less than or equal to 0.7 μM),> 70,+++ (activity was measured to be less than or equal to 0.1 μM)
CCOC(=O)N1CCC(N2CCC3(CC2)CN(C(C)=O)c2ccc(-c4cccnc4)cc23)CC1 [compound 234],65 to 85,+++ (activity was measured to be less than or equal to 0.7 μM),55 to 70,+++ (activity was measured to be less than or equal to 0.1 μM)
COC(=O)N1CC2(CCN(C3CC4CCC(C3)N4C(=O)OC)CC2)c2cc(F)ccc21 (centres unmarked) [compound 235],65 to 85,++ (activity was measured to be between 0.7 μM and 3.0 μM),55 to 70,+ (activity was measured to be greater than or equal to 4.0 μM)
CC(=O)N1CC2(CCN(C3CCC(C(F)(F)F)CC3)CC2)c2cc(F)ccc21 (centres unmarked) [compound 236],65 to 85,+++ (activity was measured to be less than or equal to 0.7 μM),55 to 70,++ (activity was measured to be between 0.1 μM and 4.0 μM)
O=C1CC2(CCN(C[C@@H]3C[C@H]4C=C[C@H]3C4)CC2)c2ccccc21 [compound 238],< 65,+ (activity was measured to be greater than or equal to 3.0 μM),< 55,+ (activity was measured to be greater than or equal to 4.0 μM)
Fc1ccc2c(c1)C1(CCN(CC3CCCCC3)CC1)CN2 [compound 239],65 to 85,+ (activity was measured to be greater than or equal to 3.0 μM),55 to 70,+ (activity was measured to be greater than or equal to 4.0 μM)
CC(=O)N1CC2(CCN(C3CCC[C@@H](C)C3)CC2)c2cc(F)ccc21 (some centres unmarked) [compound 240],65 to 85,++ (activity was measured to be between 0.7 μM and 3.0 μM),> 70,+ (activity was measured to be greater than or equal to 4.0 μM)
Cc1ccc2c(c1)C1(CCN(CC3CCC4CCC3C4)CC1)CN2 (centres unmarked) [compound 241],< 65,++ (activity was measured to be between 0.7 μM and 3.0 μM),> 70,+ (activity was measured to be greater than or equal to 4.0 μM)
O=C1CC2(CCN(C3CCCCCC3)CC2)c2ccccc2N1 [compound 242],65 to 85,+++ (activity was measured to be less than or equal to 0.7 μM),> 70,++ (activity was measured to be between 0.1 μM and 4.0 μM)
O=C(O[C@@H]1CCOC1)N1CC2(CCN(C3CC4CCC(C3)N4C(=O)O[C@@H]3CCOC3)CC2)c2cc(F)ccc21 (some centres unmarked) [compound 243],65 to 85,+++ (activity was measured to be less than or equal to 0.7 μM),55 to 70,+ (activity was measured to be greater than or equal to 4.0 μM)
c1ccc2c(c1)NCC21CCN(C2CCC3CCC2C3)CC1 (centres unmarked) [compound 244],65 to 85,++ (activity was measured to be between 0.7 μM and 3.0 μM),55 to 70,+ (activity was measured to be greater than or equal to 4.0 μM)
CCOC(=O)N1CCC(N2CCC3(CC2)CN(C(C)=O)c2ccc(C4CC4)cc23)CC1 [compound 245],< 65,++ (activity was measured to be between 0.7 μM and 3.0 μM),> 70,++ (activity was measured to be between 0.1 μM and 4.0 μM)
CC(C)C(=O)N(C)[C@H]1CC2(CCN(C[C@H]3C[C@H]4CC[C@H]3C4)CC2)c2ccccc21 [compound 246],< 65,++ (activity was measured to be between 0.7 μM and 3.0 μM),> 70,++ (activity was measured to be between 0.1 μM and 4.0 μM)
CC(C)(C)COC(=O)N1C2CCC1CC(N1CCC3(CC1)COc1ccc(F)cc13)C2 (centres unmarked) [compound 247],65 to 85,++ (activity was measured to be between 0.7 μM and 3.0 μM),> 70,+ (activity was measured to be greater than or equal to 4.0 μM)
CCOC(=O)N1CCC(N2CCC3(CC2)CN(CC(C)=O)c2ccc(F)cc23)CC1 [compound 249],65 to 85,+ (activity was measured to be greater than or equal to 3.0 μM),55 to 70,+ (activity was measured to be greater than or equal to 4.0 μM)
CCOC(=O)N1CCC(CN2CCC3(CC2)C[C@H](NC(C)=O)c2ccccc23)CC1 [compound 250],65 to 85,++ (activity was measured to be between 0.7 μM and 3.0 μM),55 to 70,+ (activity was measured to be greater than or equal to 4.0 μM)
CC(=O)N1CC2(CCN(C3CC[C@@H]4CC[C@@H]3C4)CC2)c2cc(F)ccc21 (some centres unmarked) [compound 251],65 to 85,++ (activity was measured to be between 0.7 μM and 3.0 μM),55 to 70,+ (activity was measured to be greater than or equal to 4.0 μM)
CCCOC(=O)N1CCC(N2CCC3(CC2)CN(C(C)=O)c2ccc(C)cc23)CC1 [compound 252],< 65,+ (activity was measured to be greater than or equal to 3.0 μM),55 to 70,+ (activity was measured to be greater than or equal to 4.0 μM)
CCOC(=O)N1CCC(N2CCC3(CC2)CN(C(C)=O)c2ccc(-c4ccc(C#N)cc4)cc23)CC1 [compound 253],65 to 85,++ (activity was measured to be between 0.7 μM and 3.0 μM),55 to 70,+ (activity was measured to be greater than or equal to 4.0 μM)
CCOC(=O)N1CCC(N2CCC3(CC2)CN(C(=O)C2CCC2)c2ccc(F)cc23)CC1 [compound 254],65 to 85,+ (activity was measured to be greater than or equal to 3.0 μM),55 to 70,+ (activity was measured to be greater than or equal to 4.0 μM)
CCNC(=O)N1CC2(CCN(C3CC4CCC(C3)N4C(=O)OCC)CC2)c2cc(F)ccc21 (centres unmarked) [compound 255],< 65,+ (activity was measured to be greater than or equal to 3.0 μM),< 55,+ (activity was measured to be greater than or equal to 4.0 μM)
CCOC(=O)N1CCC(CN2CCC3(CC2)CN(C(C)=O)c2ccc(Cl)cc23)CC1 [compound 256],< 65,++ (activity was measured to be between 0.7 μM and 3.0 μM),< 55,++ (activity was measured to be between 0.1 μM and 4.0 μM)
Clc1ccc2c(c1)C1(CCN(C3CCOCC3)CC1)CO2 [compound 257],> 85,+ (activity was measured to be greater than or equal to 3.0 μM),< 55,+ (activity was measured to be greater than or equal to 4.0 μM)
O=C(OC1CCCC1)N1C2CCC1CC(N1CCC3(CCc4ccccc43)CC1)C2 (centres unmarked) [compound 258],65 to 85,+ (activity was measured to be greater than or equal to 3.0 μM),< 55,+ (activity was measured to be greater than or equal to 4.0 μM)
O=C1Nc2ccccc2C12CCN(C1CC3CCC1C3)CC2 (centres unmarked) [compound 259],65 to 85,+ (activity was measured to be greater than or equal to 3.0 μM),< 55,+ (activity was measured to be greater than or equal to 4.0 μM)
